“Also recorded” adds a separate entry of the source. Marks after values point to notes of the source that are not given here.
What was measured:
Format in all cases: cell-based, human
HBEC-57KT cells [1] = assay: Soft agar assay (anchorage independent growth, transformation) of HBEC-57KT cells; conditions: for transformation, ability to grow in soft agar: 2, 10, 50, or 100 nM for 27 weeks, FIG. 3; for colony formation / transformation in soft agar: 35 weeks of chronic treatment; for # Established: Experiment 2, picked clones established in culture
From the text: (§1) Three immortalized human bronchial epithelial cell lines (HBEC-57KT, -65KT, and -66KT) were used (see, Ramirez et al., Cancer Res., 2004, 64, 9027-34). […] Cells were immortalized by over-expressing Cdk4 and human telomerase reverse transcriptase (hTERT) to emulate two of the earliest events in lung cancer pathogenesis: abrogation of the p16/RB cell cycle checkpoint pathway and bypass of replicative senescence. HBEC-57KT, -65KT, and -66KT cells were maintained in keratinocyte serum-free (KSF) media containing 50 μg/ml bovine pituitary extract and 5 ng/ml epidermal growth factor. Initially, cells were chronically treated with 0.1% DMSO (vehicle) or 100 nM E2, 4-OHE1 or 4-OHE2. Subsequently, a broader dose range was tested, including 2, 10, 50, or 100 nM […]1, or 2-OHE2. Exposure times ranged from a minimum of 18 weeks and a maximum of 40 weeks. An aliquot from each cell line and treatment was banked in liquid nitrogen every 1-2 weeks. […] Natl. Acad. Sci. USA, 1978, 75, 4001-5). Briefly, each well of a 12-well plate was coated with 0.6% agarose/KSF media. Wells were overlaid with 0.3% agarose/KSF media containing 5000 HBEC-KT cells. RKO colon carcinoma cells were included as a positive control. Each assay was performed in triplicate. After 4-6 weeks, plates were either stained with crystal violet for counting or used to isolate viable clones. Transformed clones were picked using a p200 pipette tip, placed back in culture under pre-treatment conditions in KSF media, and expanded for future analyses.

HBEC-65KT cells [2] = assay: Soft agar assay (anchorage independent growth, transformation) of HBEC-65KT cells; conditions: for # Established: Experiment 2, picked clones established in culture
From the text: as §1

HBEC-66KT cells = assay: Soft agar assay (anchorage independent growth, transformation) of HBEC-66KT cells; conditions: chronic treatment, data not shown
From the text: Three immortalized human bronchial epithelial cell lines (HBEC-57KT, -65KT, and -66KT) were used (see, Ramirez et al., Cancer Res., 2004, 64, 9027-34). […] Cells were immortalized by over-expressing Cdk4 and human telomerase reverse transcriptase (hTERT) to emulate two of the earliest events in lung cancer pathogenesis: abrogation of the p16/RB cell cycle checkpoint pathway and bypass of replicative senescence. HBEC-57KT, -65KT, and -66KT cells were maintained in keratinocyte serum-free (KSF) media containing 50 μg/ml bovine pituitary extract and 5 ng/ml epidermal growth factor. Initially, cells were chronically treated with 0.1% DMSO (vehicle) or 100 nM E2, 4-OHE1 or 4-OHE2. Subsequently, a broader dose range was tested, including 2, 10, 50, or 100 nM […]1, or 2-OHE2. Exposure times ranged from a minimum of 18 weeks and a maximum of 40 weeks. An aliquot from each cell line and treatment was banked in liquid nitrogen every 1-2 weeks. At specific timepoints (18, 24 and 34 weeks post-treatment), each treated cell line was assayed for transformation by assessing anchorage independent growth in soft agar according to the method of de Larco and Todaro (see, de Larco et al., Proc. Natl. Acad. Sci. USA, 1978, 75, 4001-5). Briefly, each well of a 12-well plate was coated with 0.6% agarose/KSF media. Wells were overlaid with 0.3% agarose/KSF media containing 5000 HBEC-KT cells. RKO colon carcinoma cells were included as a positive control. Each assay was performed in triplicate. After 4-6 weeks, plates were either stained with crystal violet for counting or used to isolate viable clones. Transformed clones were picked using a p200 pipette tip, placed back in culture under pre-treatment conditions in KSF media, and expanded for future analyses.

HBEC-57KT cells [3] = assay: Comet assay of DNA damage in HBEC-57KT cells; conditions: HBEC-57KT (high-activity CYP1B1, low-activity COMT); short-term treatment; FIG. 4
Experimental: (§2) DNA was extracted from expanded clones for sequencing. The mutation status of 50 oncogenic driver genes was examined in transformed cells by next-gen sequencing using an AmpliSeq Illumina for Cancer Hotspot Panel v2. Data were analyzed using Illumina software. DNA damage induced by short-term treatment with estrogens was measured using the Comet assay (see, Mozaffarieh et al., Mol. Vis., 2008, 14, 1584-8). Other assays, however, may be used as desired.

HBEC-65KT cells [4] = assay: Comet assay of DNA damage in HBEC-65KT cells; conditions: HBEC-65KT (high-activity CYP1B1, low-activity COMT); short-term treatment; FIG. 4
Experimental: as §2

[5] = Experiment 2, chronic treatment, 100 nM, soft agar
[6] = Experiment 3, 18 weeks treated, colonies diffuse, did not grow once picked (not fully transformed)

SMILES | transformation, ability to grow in soft agar (HBEC-57KT cells [1]) | colony formation / transformation in soft agar (HBEC-57KT cells [1]) | # Colonies (HBEC-57KT cells [1]; [5]) | # Established (HBEC-57KT cells [1]) | # Colonies (HBEC-57KT cells [1]; Experiment 3, 35 weeks treated) | # Colonies (HBEC-65KT cells [2]; [5]) | # Established (HBEC-65KT cells [2]) | # Colonies (HBEC-65KT cells [2]; Experiment 3, 35 weeks treated) | transformation (HBEC-66KT cells) | # Colonies (HBEC-57KT cells [1]; [6]) | colony formation in soft agar (HBEC-65KT cells [2]; 35 weeks of chronic treatment) | # Colonies (HBEC-65KT cells [2]; Experiment 3, 18 weeks treated) | DNA damage, comet tail moment vs. DMSO (HBEC-57KT cells [3]) | DNA damage, comet tail moment vs. DMSO (HBEC-65KT cells [4])
C[C@]12CC[C@@H]3c4ccc(O)c(O)c4CC[C@H]3[C@@H]1CCC2=O [4-OHE1] | can transform HBEC-57KT cells | also transformed HBEC-57KT cells | 0 | 0 | 5 (small) | 0 | 0 | 0 | None of the tested treatments; also recorded: negative for transformation |  |  |  |  | 
C[C@]12CC[C@@H]3c4cc(O)c(O)cc4CC[C@H]3[C@@H]1CC[C@@H]2O [2-OHE2] | can transform HBEC-57KT cells |  |  |  |  |  |  |  |  |  |  |  |  | 
C[C@]12CC[C@@H]3c4ccc(O)cc4CC[C@H]3[C@@H]1CC[C@@H]2O [E2, 17β estradiol] | can transform HBEC-57KT cells | low level colony formation | 13 | 6 | 30 | 11 | 4 | 34 | None of the tested treatments; also recorded: negative for transformation | 0 | low level colony formation | 0 | induce DNA damage | induce DNA damage
C[C@]12CC[C@@H]3c4ccc(O)c(O)c4CC[C@H]3[C@@H]1CC[C@@H]2O [4-OHE2] | can transform HBEC-57KT cells | efficient colony formation | 40 | 11 | 54 | 0 | 0 | 0 | None of the tested treatments; also recorded: negative for transformation | 4* |  |  | induce DNA damage | induce DNA damage
C[C@]12CC[C@@H]3c4cc(O)c(O)cc4CC[C@H]3[C@@H]1CCC2=O [2-OHE1] | can transform HBEC-57KT cells |  |  |  |  |  |  |  |  |  |  |  |  | 

From US20230033047A1, “Estrogen Metabolite Levels And Cancer Driver Gene Mutations In Lung Cancer Risk Stratification And Treatment” (Institute For Cancer Research d/b/a The Research Institute …, priority 2020, published 2023)
